In US20120035244A1, “PARP1 TARGETED THERAPY” (THE REGENTS OF THE UNIVERSITY OF MICHIGAN, priority 2010, published 2012):
“Also recorded” adds a separate entry of the source.

Experiments:
T-ALL cell lines = experiment: T-ALL cell lines: neutral COMET assays and soft agar colony formation; format: cell-based; conditions: with or without 10 μM Olaparib for 48 hours (COMET); soft agar colony formation
Protocol: The effect of PARP1 inhibitors on T-ALL cell lines was assayed using Western blot analysis of several T-ALL cell lines comparing total ERG expression levels. In addition, neutral COMET assays were performed on a panel of T-ALL cell lines. RWPE was used as an ETS negative control and VCaP cells were used for comparison to an ETS positive model. Cells were treated with or without 10 μM Olaparib for 48 hours as indicated. Soft agar colony formation was performed on cells treated with or without Olaparib as indicated. All experiments were run in triplicate. Error bars are standard error of the mean.

[1] = Body weight of xenografted mice; format: in vivo; conditions: xenograft and primagraft models, Olaparib treatment
Protocol: (§1) Olaparib was obtained from Axon Medchem (Groningen, The Netherlands).
Human prostate cancer specimens MDA-PCa 2b-T (ETV1 positive), MDA-PCa-133 (ERG positive) and MDA PCa 118b (ETS-negative) were obtained (Li, Z. G., et al. The Journal of clinical investigation 118, 2697-2710 (2008)). Each xenografted tumor tissue was aseptically harvested from the host mice. New recipient mice were anesthetized by injecting […] intraperitoneally for chemical restraint before tumor implantation. About 0.5 cm^3 size of the excised tumor tissue was directly implanted into subcutaneous pockets of 6- to 8-week-old male CB17 SCID mice (Charles River Laboratories) in a laminar flow sterile hood. Sub-cutaneous pocket was carefully closed by applying 1 or 2 wound clips. All mice were monitored for 24 hours after implantation procedure for any apparent physiologic disturbances or missing wound clips. Olaparib (40 mg/Kg body weight) treatment was started after 72 hours. […] Body weight was also monitored weekly during the course of the study.

PC3 cells = experiment: Colony formation after radiation, isogenic PC3 model overexpressing T2:ERG; format: cell-based; conditions: PC3, pre-treated with 10 μM Olaparib
Protocol: The effect of ETS overexpression on radioresistance was assayed. Isogenic PC3 or DU145 models overexpressing either T2:ERG or ERG with a deleted ETS domain were pre-treated with or without 10 μM Olaparib and then treated with different doses of radiation as indicated. Colony formation was assessed. Experiments were also performed in which cells were pre-treated with either PARP1 or control siRNA prior to radiation. Western blot analysis was used to assess PARP knockdown efficiency in the inset. Total Poly(ADP-ribose) (or PAR) levels were assessed by Western blot analysis from total cell lysates. All experiments were run in triplicate. Error bars are standard error of the mean.

VCaP = experiment: CAM xenograft tumor weight, VCaP; format: in vivo, chicken embryo; conditions: extended Olaparib treatment, P<0.05
Protocol: The CAM assay was performed as described previously (Zijlstra, A., et al., Cancer research 62, 7083-7092 (2002)). Briefly, fertilized eggs were incubated in a rotary humidified incubator at 38° C. with for 10 days. After releasing the CAM by applying mild amount of low pressure to the hole over the air sac and cutting a square 1-cm^2 window encompassing a second hole near the allantoic vein, cultured human cells that had been pre-treated with siRNA as indicated were detached by trypsinization and re-suspended in complete medium prior to implantation of 2×10^6 cells adjacent to the mesenchyme in each egg. The windows were subsequently, sealed and the eggs were returned to a stationary incubator. Cells were then treated as indicated with 40 mg/kg body weight Olaparib which was administered on day 13, 15 and 17. Day 18 embryos were sacrificed. Tumors were then excised and weighed. […] After incubation of either the metastasis or intravasation assays, the extra-embryonic tumor and CAM, as well as the embryonic liver were harvested and analyzed for the presence of tumor cells by quantitative human alu-specific PCR. […] Quantification of human cells in the extracted DNA was done as described^14. Fluorogenic TaqMan qPCR probes were applied as above, and DNA copy numbers were quantified.

[2] = tested on: PC3 model overexpressing T2:ERG; experiment: γH2A.X foci after radiation (DNA double strand break repair), isogenic PC3 model; format: cell-based; conditions: PC3, pre-treated with 10 μM Olaparib, then radiation
Protocol: The effect of ETS overexpression on repair of DNA double strand breaks was assayed. Isogenic PC3 and DU145 models, respectively, overexpressing either T2:ERG or ERG with a deleted ETS domain were pre-treated with or without 10 μM Olaparib and then treated with radiation. Immunofluorescence staining of γH2A.X foci was used to assess total levels of DNA damage and repair rate. The number of cells with >10 γH2A.X foci were quantified at each time point as indicated. Representative photomicrographs were taken 24 hours after treatment using an Olympus confocal microscope with a 100× Oil objective. All experiments were run in triplicate. Error bars are standard error of the mean.

VCaP xenografts = experiment: VCaP mouse xenograft model; format: in vivo, mice
Description: as §1

VCaP cells = experiment: Basement membrane matrix invasion assay, VCaP cells; format: cell-based, human; conditions: P<0.01 for DNA-PKcs siRNA or NU7026>10 μM; P<0.05 for all PARP1 siRNA, NU1025 or Olaparib treatments
Protocol: For invasion assays, the prostate cell lines RWPE-1 and VCaP were transfected with siRNA or negative controls as indicated. NU7026 (Sigma) and NU1025 (Calbiochem) were dissolved in DMSO and stored at −20° C. in the dark. Forty-eight hours post-transfection/transduction, cells were seeded onto the basement membrane matrix (EC matrix, Chemicon, Temecula, Calif.) in the chamber insert with […] pores of a 24-well culture plate in serum free media. Cells were attracted to the lower chamber by the addition of complete media as a chemoattractant. After 48 hours incubation at 37° C. with 5% CO2, the non-invading cells and EC matrix were gently removed with a cotton swab. Invasive cells, which were located on the lower side of the membrane, were stained with crystal violet, air dried and photographed. To quantify the relative number of invaded cells, colorimetric assays were performed by treating the inserts with 150 μl of 10% acetic acid (v/v) and measuring absorbance of each condition at 560 nm using a spectrophotometer (GE Healthcare).

PC3 xenografts = experiment: PC3 (PC3-control) mouse xenograft model; format: in vivo, mice; conditions: PC3 / PC3-control (ETS negative); Olaparib 40 mg/kg IP, NU7026 25 mg/kg IP
Description: as §1

PC3 = experiment: Basement membrane matrix invasion assay, PC3 cells; format: cell-based, human
[3] = tested on: VCaP and PC3 xenograft tumors; experiment: Ki67 and CD31 immunohistochemistry on tissue microarray of VCaP and PC3 xenograft tumors; conditions: pairwise t-test
[4] = Fong et al., N Engl J Med 361, 123-134 (2009); cited from earlier work

SMILES: O=C(c1cc(Cc2n[nH]c(=O)c3ccccc23)ccc1F)N1CCN(C(=O)C2CC2)CC1 [Olaparib, 4-[3-(4-Cyclopropanecarbonylpiperazine-1-carbonyl)-4-fluorobenzyl]-2H-phthalazin-1-one]
- sensitivity of T-ALL cell lines (T-ALL cell lines): sensitive to PARP1 inhibition; also recorded: sensitive to PARP inhibition
- total body weight [1]: did not lead to a significant decrease in total body weight; also recorded: did not have an observable effect on total body weight; also recorded: does not reduce total mouse body weight
- ERG induced radiation resistance (colony formation) (PC3 cells): blocks ERG induced radiation resistance; also recorded: reversed by PARP inhibition
- tumor size (weight) on CAM (VCaP): significantly smaller
- ERG-enhanced DNA DSB damage repair (γH2A.X foci) [2]: blocked; also recorded: reversed by PARP inhibition
- dose dependence of VCaP tumor growth response (VCaP xenografts; Olaparib): dose dependent
- tumor growth relative to the vehicle control (VCaP xenografts; VCaP, Olaparib 40 mg/kg/day IP (P=0.001), NU7026 25 mg/kg/day IP (p=0.004)): significant reduction of tumor growth
- VCaP cell invasion (VCaP cells): significant reduction; also recorded: blocks VCaP cell invasion
- xenograft growth (PC3 xenografts): did not block the growth; also recorded: did not significantly inhibit xenograft growth
- invasion of PC3 (ETS rearrangement negative control) (PC3): does now effect invasion
- average number of Ki67 positive cells [3]: Neither NU7026 nor Olaparib consistently led to a significant change; also recorded: no significant change
- microvessel density (CD31) [3]: Neither NU7026 nor Olaparib consistently led to a significant change; also recorded: no significant change
- tolerability in cancer patients [4]: well tolerated in cancer patients with a minimal side effect profile; also recorded: well tolerated at doses capable of inhibiting PARP activity
